≈ marks a conversion by molar mass, not a printed value. Marks after values point to notes of the source that are not given here.
Key:
[1] = tested on: HCT-116 cells treated with 2 mM caffeine; experiment: MTT assay, sensitization (caffeine); assay type: cell-based; conditions: 2 mM caffeine pre-treated for 16 hours, compound 72 hours
Protocol: Cells were then incubated with 5% MTT for 1-2 hours and lysed. MTT was colorimetrically read at 570 nm and EC50's were determined using linear regression analysis.
Sensitization was carried out with various chemical treatments.

[2] = tested on: CEM/C2 (camptothecan resistant derivative of CCRF-CEM); experiment: MTT cell viability assay, leukemia cells; assay type: cell-based; conditions: Homo sapiens; CEM/C2, MTT after 72 hours
Protocol: (§1) The following cell lines were used in this assay: HL-60 (promyelocytic leukemia); Jurkat (T cell leukemia); CCRF-CEM (lymphoblastic leukemia); CEM/C2 (camptothecan resistant derivative of CCRF-CEM). Cells were seeded in 96 wells plates at 3000 cells per well and incubated for 16 hours. […] Titrations were diluted 1:100 in media to achieve final compound concentrations. The 96 well plates were aspirated and compound dilutions in media were added ([…]). MTT analysis was carried out after 72 hours of incubation at 37° C. Briefly, […] of MTT solution was added to each well. Cells were incubated at 37° C. for 1-2 hours. […] Plates were read on a spectromax machine with an absorbance measurement at […]. IC50's were calculated (data provided in Table 13) using regression analysis within GraphPad Prism.

[3] = tested on: CCRF-CEM (lymphoblastic leukemia); experiment: MTT cell viability assay, leukemia cells; assay type: cell-based; conditions: Homo sapiens, MTT after 72 hours
Protocol: as §1

[4] = tested on: Jurkat (T cell leukemia); experiment: MTT cell viability assay, leukemia cells; assay type: cell-based; conditions: Homo sapiens, MTT after 72 hours
Protocol: as §1

[5] = tested on: HL-60 (promyelocytic leukemia); experiment: MTT cell viability assay, leukemia cells; assay type: cell-based; conditions: Homo sapiens; HL-60, MTT after 72 hours
Protocol: as §1

[6] = tested on: CCRF-CEM acute lymphoblastic leukemia tumor; experiment: CCRF-CEM xenograft model; assay type: in vivo, nude mice; conditions: q7d X3, IV, 25 mg/kg
Protocol: CCRF-CEM acute lymphoblastic leukemia tumor lobes of 2-3 mm square were transplanted subcutaneously into nude mice. Tumors were allowed to grow to approximately 8-20 mm in diameter. […] Acceptable toxicity was defined as a mean group weight loss of 30% or less and not more than one toxic death among 6 treated animals. Anti-tumor activities of the drugs were assessed 20 or 21 days after the start of administration. Table 14 provides data for tumor inhibition (TI) and survival rate in the CCRF-CEM and LM3-Jck xenograft models.

## CN[C@H]1CN(c2ccc3c(=O)c(C(=O)O)cn(-c4nccs4)c3n2)C[C@@H]1OC [SNS-595, (+)-1,4-dihydro-7-[(3S,4S)-3-methoxy-4-(methylamino)-1-pyrrolidinyl]-4-oxo-1-(2-thiazolyl)-1,8-naphthyridine-3-carboxylic acid]
[1]
  Sensitization, fold decrease in the EC50 for cytotoxicity (MTT): Caffeine: 0.5 fold
[2]
  IC50: 0.01 µg/mL (≈ 0.0249 µM)
[3]
  IC50: 0.018 µg/mL (≈ 0.0448 µM)
[4]
  IC50: 0.023 µg/mL (≈ 0.0573 µM)
[5]
  IC50: 0.053 µg/mL (≈ 0.132 µM)
[6]
  IR (%) (tumor inhibition rate): 98.1* %

— patent US8580814B2, “Methods of using (+)-1,4-dihydro-7-[(3S,4S)-3-methoxy-4-(methylamino)-1-pyrrolidinyl]-4- oxo-1-(2-thiazolyl)-1,8-naphthyridine-3-carboxylic acid for treatment of cancer” (priority 2006, dated 2013)
